Measurements: patent US12037583B2, “Compositions and methods for immunooncology” (Novartis AG, priority 2015, dated 2024)

Key:
[1] = test system: CD3E; experiment: NGS editing and frameshift edit of CD3E by dgRNA in HEK-293(Cas9) cells; type: cell-based, human; conditions: dgRNA to CD3E in HEK-293(Cas9) cells
From the text: Transfection of Cas9GFP-expressing HEK293 cells (HEK-293_Cas9GFP) was used for primary screening of target specific crRNAs. In this example, target specific crRNAs were designed and selected for primary screening using defined criteria including in silico off-target detection, e.g., as described herein. Selected crRNAs were chemically synthesized and delivered in a 96 well format. HEK-293-Cas9GFP cells were transfected with target crRNAs comprising a flagpole region of SEQ ID NO: 6607 in a 1:1 ratio with stock trRNA of SEQ ID NO: 6660. The transfection was mediated using lipofection technology according to manufacturer's protocol (DharmaFECT Duo, GE LifeSciences; or RNAiMax, LifeTechnologies). Transfected cells were lysed 24 h following lipofection and editing (e.g., cleavage) was detected within lysates with the T7E1 assay and/or next generation sequencing (NGS; below).
PCR primers were first designed around the target site, and the genomic area of interest PCR amplified. Additional PCR was performed according to manufacturer's protocols (Illumina) to add the necessary chemistry for sequencing. The amplicons were then sequenced on an Illumina MiSeq instrument. The reads were then aligned to the human reference genome (e.g., hg38) after eliminating those having low quality scores. From the resulting files containing the reads mapped to the reference genome (BAM files), reads which overlap the target region of interest were selected and the number of wild type reads versus the number of reads which contain an insertion or deletion was calculated. The editing percentage was then defined as the total number of reads with insertions or deletions over the total number of reads, including wild type. To determine the pattern of insertions and/or deletions that resulted from the edit, the aligned reads with indels were selected and the number of a reads with a given indel were summed.
dgRNA molecules comprising the indicated targeting domain were chemically synthesized, and editing assessed in HEK-293 cells by NGS as described in Example 1. […] Several gRNA molecules were able to edit more than 50% of the cells, including producing a frameshift mutation in more than 50% of the cells.

[2] = test system: CIITA; experiment: NGS editing and frameshift edit of CIITA by dgRNA in HEK293 cells expressing Cas9; type: cell-based, human; conditions: HEK293 cells stably expressing Cas9, dgRNA to CIITA; for Avg. % Edit: N = 3; for Avg. % FS: frameshift edit
Experimental: Editing of CIITA with dgRNAs targeted to the CIITA gene were assayed in HEK293 cells engineered to express Cas9, as described above in Example 1.

[3] = test system: CIITA; experiment: NGS editing and frameshift edit of CIITA in CD3+ primary human T cells (RNP); type: cell-based; conditions: dgRNA targeting CIITA delivered as RNP to CD3+ T cells
From the text: The frequency of insertions or deletions is indicated (% indels) and the percentage of these edits that result in frameshifting of the coding sequence is shown (% frameshift edits).
PBMC were isolated from human blood (Hemacare) by using centrifugation method using Ficoll. […] These cells were aliquoted and frozen. These frozen cell aliquots were then thawed and activated using CD3/CD28 beads (DynaBeads Invitrogen Cat #111.41D) at bead to cell ratio of 3:1. On day 2 or day 3 after bead activation, 200,000 cells were removed from culture for electroporation. […] Next 1 μL of 100 μM crRNA was added, mixed and incubated for 10 min at 37° C. If more than one RNP was added during the electroporation step, each RNP with a crRNA targeting a different gene was assembled separately using the above method, then combined together with the addition of Cas9 buffer in order to obtain different RNP final concentrations for different conditions. For “triple editing”, i.e. simultaneous addition of 3 RNPs targeting different genes, details of RNP quantities are provided in the figures. The assembled RNPs were then mixed with 200,000 cells in 10 ul of T Buffer (neon transfection system 10 ul Kit). Electroporation was performed by Neon electroporator using Neon® Transfection System 10 μL Kit (MPK1096) at 1600V, 10 ms, 3 pulses. […] To evaluate the editing frequency and sequence changes resulting from gene editing in the above prepared T cells, genomic DNA was isolated and subjected to sequencing. Briefly, frozen cell pellets were thawed and processed using DNeasy Blood & Tissue Kit (Qiagen, 69506) to isolate genomic DNA. Eluted DNA was used to run PCR using Titanium Taq PCR kit (Clontech Laboratories, 639211) and primers in Table 27.
PCR product was purified using QIAquick PCR Purification Kit (Qiagen, 28104). […] PCR amplicons were subjected to standard Nextera NGS library prep (Illumina) and sequenced with paired-end reads on an Illumina MiSeq sequencer.

[4] = test system: TRAC; experiment: Editing of TRAC by dgRNAs in HEK cells stably expressing Cas9 (NGS); type: cell-based, human; conditions: dgRNA delivered to HEK cells stably expressing Cas9, target TRAC, mean of at least 3 experiments
From the text: (§1) FIG. 12: Mean (n≥3) editing of CRISPR systems with dgRNAs as indicated to TRAC in HEK cells (stably expressing Cas9) or primary human CD3+ T cells (delivery of dgRNA:Cas9 RNP by electroporation).

[5] = test system: TRAC locus; experiment: Genomic editing of the TRAC locus in primary human CD3+ T cells by RNP electroporation (NGS: % indels, % frameshift edits, indel pattern); type: cell-based; conditions: dgRNA/Cas9 RNP by electroporation, target TRAC; for mean FS edit (%): frameshift edits in primary human CD3+ T cells; for mean total % edit: primary human CD3+ T cells, mean of at least 3 experiments;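 on all read-outs here: total edit is the insertion or deletion frequency at TRAC, and the frameshift value is the share of those indels that shift the coding frame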
From the text: as §1
FIG. 33C: Genomic editing of the TRAC locus resulting from human primary T cell electroporation with RNP containing the indicated gRNA targeting the TRAC locus is shown. The frequency of insertions or deletions is indicated (% indels) and the percentage of these edits that result in frameshifting of the coding sequence is shown (% frameshift edits).
Data for each experiment are the average from triplicate PCR products.

Row | Substance | Avg. % Edit (any indel) [1] | Avg. Frameshift % [1] | Avg. % Edit [2] | Avg. % FS [2] | Editing % [3] | Frameshift Edit % [3] | mean % edit [4] | mean FS edit (%) [5] | mean total % edit [5]
1 | CR002230 (guide AGGCCUCUCUACUUCCUGUG; targeting domain within dual guide RNA, chemistry not given here, further chemistry not given here; listed as Homo sapiens) | 20.64% | 20.10% |  |  |  |  |  |  | 
2 | CR002231 (guide GGCCUCUCUACUUCCUGUGU; targeting domain within dual guide RNA, chemistry not given here, further chemistry not given here; listed as Homo sapiens) | 13.83% | 12.37% |  |  |  |  |  |  | 
3 | CR002976 (guide AUAGAAGUGGUAGAGGCACA; chemistry not given here; listed as Homo sapiens) |  |  | 45.36% | 37.66% | 4.0% | 3.6% |  |  | 
4 | CR002978 (guide UCUGGUCAUAGAAGUGGUAG; chemistry not given here; listed as Homo sapiens) |  |  | 38.34% | 34.11% | 4.7% | 2.7% |  |  | 
5 | CR002980 (guide GGUCCAUCUGGUCAUAGAAG; chemistry not given here; listed as Homo sapiens) |  |  | 50.30% | 42.41% | 6.1% | 3.6% |  |  | 
6 | CR002992 (guide UGGAAGGUGAUGAAGAGACC; chemistry not given here; listed as Homo sapiens) |  |  | 46.54% | 31.23% | 16.0% | 11.6% |  |  | 
7 | CR002993: dgRNA targeting domain to CIITA (guide GGAAGGUGAUGAAGAGACCA; chemistry not given here; listed as Homo sapiens) |  |  | 60.16% | 48.86% | 33.8% | 27.2% |  |  | 
8 | CR002994 (guide AGGUGAUGAAGAGACCAGGG; chemistry not given here; listed as Homo sapiens) |  |  | 42.35% | 31.32% | 22.0% | 18.1% |  |  | 
9 | CR002995 (guide GAUAUUGGCAUAAGCCUCCC; chemistry not given here; listed as Homo sapiens) |  |  | 52.74% | 43.64% | 3.1% | 2.5% |  |  | 
10 | CR003001 (guide UUCCAGGACUCCCAGCUGGA; chemistry not given here; listed as Homo sapiens) |  |  | 47.64% | 43.30% | 36.3% | 32.0% |  |  | 
11 | CR003007: dgRNA targeting domain to CIITA (guide AUAGGACCAGAUGAAGUGAU; chemistry not given here; listed as Homo sapiens) |  |  | 43.64% | 32.22% | 31.6% | 28.8% |  |  | 
12 | CR003013 (guide UGCCGGAAGCUCCUCUGGGA; chemistry not given here; listed as Homo sapiens) |  |  | 37.75% | 29.94% | 11.5% | 9.0% |  |  | 
13 | GCAGCAGGGACCUGUGAGCA (chemistry not given here; listed as Homo sapiens) [CR000926] |  |  |  |  |  |  | 73.0% | 19.9% | 22.5%
14 | GCAUUGCCGGGGGGGCACAG (chemistry not given here; listed as Homo sapiens) [CR001014] |  |  |  |  |  |  | 52.7% | 24.3% | 27.3%
15 | GCUGUAUGUGUGAGUUGGUG (chemistry not given here; listed as Homo sapiens) [CR000948] |  |  |  |  |  |  | 84.5% | 18.4% | 20.3%
16 | GCUUUCACCUCCUUGGGGGU (chemistry not given here; listed as Homo sapiens) [CR001008] |  |  |  |  |  |  | 13.6% | 4.5% | 5.1%
17 | GGAAACACACCUCUUGUCUU (chemistry not given here; listed as Homo sapiens) [CR000953] |  |  |  |  |  |  | 66.0% | 14.4% | 17.7%

Row | Substance | Avg. % Edit (any indel) [1] | Avg. Frameshift % [1] | Avg. % Edit [2] | Avg. % FS [2] | Editing % [3] | Frameshift Edit % [3] | mean % edit [4] | mean FS edit (%) [5] | mean total % edit [5]
18 | GGUGUCAUAUGUGCAGCUCA (chemistry not given here; listed as Homo sapiens) [CR000938] |  |  |  |  |  |  | 55.0% | 12.5% | 13.9%
19 | GUAGCAGCUUUCACCUCCUU (chemistry not given here; listed as Homo sapiens) [CR001011] |  |  |  |  |  |  | 64.8% | 10.8% | 13.2%
20 | GUAGGAGAGUUCCCUCUGUU (chemistry not given here; listed as Homo sapiens) [CR001006] |  |  |  |  |  |  | 56.8% | 10.4% | 13.6%
21 | UAAACCCGGCCACUUUCAGG (chemistry not given here; listed as Homo sapiens) [CR000990] |  |  |  |  |  |  | 63.7% | 25.3% | 36.1%
22 | UAAAUAAUAAUCACUCUCAC (chemistry not given here; listed as Homo sapiens) [CR000940] |  |  |  |  |  |  | 55.0% | 14.4% | 22.1%
23 | UAGCAGCUUUCACCUCCUUG (chemistry not given here; listed as Homo sapiens) [CR001010] |  |  |  |  |  |  | 48.3% | 18.6% | 21.2%
24 | UAGGCAGACAGACUUGUCAC (chemistry not given here; listed as Homo sapiens) [CR000963] |  |  |  |  |  |  | 68.4% | 25.3% | 32.5%
25 | UAUUCUUGUGCUCUCAGAGA (chemistry not given here; listed as Homo sapiens) [CR000952] |  |  |  |  |  |  | 57.9% | 5.6% | 5.8%
26 | UCAAGGCCCCUCACCUCAGC (chemistry not given here; listed as Homo sapiens) [CR000995] |  |  |  |  |  |  | 23.2% | 2.5% | 1.9%
27 | UCCUCCUCCUGAAAGUGGCC (chemistry not given here; listed as Homo sapiens) [CR000988] |  |  |  |  |  |  | 41.9% | 17.4% | 22.3%
28 | UCUGUUGCUUAUAAGCUUCU (chemistry not given here; listed as Homo sapiens) [CR000946] |  |  |  |  |  |  | 65.9% | 9.2% | 9.8%
29 | UGCUCACAGGUCCCUGCUGC (chemistry not given here; listed as Homo sapiens) [CR000925] |  |  |  |  |  |  | 56.9% | 12.3% | 19.1%
30 | UGCUCAUGACGCUGCGGCUG (chemistry not given here; listed as Homo sapiens) [CR000994] |  |  |  |  |  |  | 46.9% | 10.8% | 21.5%
31 | UGGUGUCAUAUGUGCAGCUC (chemistry not given here; listed as Homo sapiens) [CR000939] |  |  |  |  |  |  | 27.7% | 12.1% | 13.5%
32 | UUCAAAACCUGUCAGUGAUU (chemistry not given here; listed as Homo sapiens) [CR000983] |  |  |  |  |  |  | 59.8% | 18.2% | 26.6%
33 | UUGCCGGGGGGGCACAGAGG (chemistry not given here; listed as Homo sapiens) [CR001013] |  |  |  |  |  |  | 29.7% | 17.6% | 19.6%
34 | UUUCAAAACCUGUCAGUGAU (chemistry not given here; listed as Homo sapiens) [CR000982] |  |  |  |  |  |  | 48.1% | 23.2% | 28.5%
